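Results reflect a 48-hour exposure of cells in 96-well plates to compound at five concentrations. The concentration for 50% growth inhibition is given as GI50. TGI: total growth inhibition.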
Tests used:
Experiment in all cases: DTP human tumour cell line panel, 48 h
[1] = system: A498 renal
[2] = system: OVCAR-3 ovarian
[3] = system: SW-620 colon
[4] = system: DU-145 prostate
[5] = system: MDA-MB-231 breast
[6] = system: U251 CNS
[7] = system: HL-60(TB) leukemia
[8] = system: ACHN renal
[9] = system: NCI-H460 lung
[10] = system: A549 NSCLC
[11] = system: SK-MEL-5 melanoma
[12] = system: NCI-H522 lung
[13] = system: HOP-92 NSCLC
[14] = system: HT29 colon
[15] = system: SN12C renal
[16] = system: UACC-62 melanoma
[17] = system: MOLT-4 leukemia
[18] = system: COLO 205 colon
[19] = system: BT-549 breast
[20] = system: LOX IMVI melanoma
[21] = system: HS 578T breast
[22] = system: SNB-19 CNS
[23] = system: SF-295 CNS
[24] = system: CCRF-CEM leukemia
[25] = system: NCI/ADR-RES ovarian
[26] = system: SF-539 CNS
[27] = system: RPMI-8226 leukemia
[28] = system: UACC-257 melanoma
[29] = system: NCI-H23 lung
[30] = system: SNB-75 CNS
[31] = system: OVCAR-5 ovarian
[32] = system: TK-10 renal
[33] = system: OVCAR-8 ovarian
[34] = system: MCF7 breast
[35] = system: K-562 leukemia
[36] = system: RXF 393 renal
[37] = system: HCT-116 colon
[38] = system: PC-3 prostate
[39] = system: SK-OV-3 ovarian
[40] = system: EKVX NSCLC
[41] = system: M14 melanoma
[42] = system: SK-MEL-2 melanoma
[43] = system: SF-268 CNS
[44] = system: KM12 colon
[45] = system: HOP-62 NSCLC
[46] = system: SR leukemia
[47] = system: UO-31 renal
[48] = system: MDA-MB-435
[49] = system: OVCAR-4 ovarian
[50] = system: IGROV1 ovarian
[51] = system: CAKI-1 renal
[52] = system: SK-MEL-28 melanoma
[53] = system: 786-0 renal
[54] = system: NCI-H226 lung
[55] = system: MALME-3M melanoma
[56] = system: T-47D breast
[57] = system: HCT-15 colon

CCOC(=O)/C(=C(/C)NCC(C)C)c1cc(O)c(O)c2c(C)cc(=O)[nH]c12
GI50 [1]: 8.31 µM | TGI [1]: 29.7 µM | GI50 [2]: 3.16 µM | TGI [2]: > 100 µM | GI50 [3]: 4.95 µM | TGI [3]: > 100 µM | GI50 [4]: 10.5 µM | TGI [4]: > 100 µM | GI50 [5]: 4 µM | TGI [5]: 94.1 µM | GI50 [6]: 8.68 µM | TGI [6]: 50.9 µM | GI50 [7]: 2.63 µM | TGI [7]: > 100 µM | GI50 [8]: 7.99 µM | TGI [8]: > 100 µM | GI50 [9]: 4.32 µM | TGI [9]: > 100 µM | GI50 [10]: 7.8 µM | TGI [10]: > 100 µM | GI50 [11]: 11.1 µM | TGI [11]: > 100 µM | GI50 [12]: 3.02 µM | TGI [12]: 51.6 µM | GI50 [13]: 9.51 µM | TGI [13]: 45 µM | GI50 [14]: > 100 µM | TGI [14]: > 100 µM | GI50 [15]: 4.96 µM | TGI [15]: > 100 µM | GI50 [16]: 7.12 µM | TGI [16]: > 100 µM | GI50 [17]: 3.8 µM | TGI [17]: > 100 µM | GI50 [18]: > 100 µM | TGI [18]: > 100 µM | GI50 [19]: 6.22 µM | TGI [19]: 66.7 µM | GI50 [20]: 5.78 µM | TGI [20]: > 100 µM | GI50 [21]: 13.4 µM | TGI [21]: 57.3 µM | GI50 [22]: 13.8 µM | TGI [22]: > 100 µM | GI50 [23]: 4.46 µM | TGI [23]: 48.1 µM | GI50 [24]: 1.4 µM | TGI [24]: 55.5 µM | GI50 [25]: 2.42 µM | TGI [25]: 95.7 µM | GI50 [26]: 5.52 µM | TGI [26]: 85.1 µM | GI50 [27]: 3.5 µM | TGI [27]: > 100 µM | GI50 [28]: 14.3 µM | TGI [28]: > 100 µM | GI50 [29]: 5.48 µM | TGI [29]: > 100 µM | GI50 [30]: 3.85 µM | TGI [30]: 29.8 µM | GI50 [31]: 64.7 µM | TGI [31]: > 100 µM | GI50 [32]: 9.18 µM | TGI [32]: 68.3 µM | GI50 [33]: 4.87 µM | TGI [33]: > 100 µM | GI50 [34]: 4.38 µM | TGI [34]: > 100 µM | GI50 [35]: 6.8 µM | TGI [35]: > 100 µM | GI50 [36]: 1.18 µM | TGI [36]: 20.4 µM | GI50 [37]: 3.19 µM | TGI [37]: 30.6 µM | GI50 [38]: 11.1 µM | TGI [38]: > 100 µM | GI50 [39]: 13 µM | TGI [39]: > 100 µM | GI50 [40]: 5.45 µM | TGI [40]: > 100 µM | GI50 [41]: 4.53 µM | TGI [41]: > 100 µM | GI50 [42]: 5.92 µM | TGI [42]: > 100 µM | GI50 [43]: 4.67 µM | TGI [43]: > 100 µM | GI50 [44]: 12.4 µM | TGI [44]: > 100 µM | GI50 [45]: 10.3 µM | TGI [45]: 37 µM | GI50 [46]: 4.02 µM | TGI [46]: > 100 µM | GI50 [47]: 46.1 µM | TGI [47]: > 100 µM | GI50 [48]: 5.93 µM | TGI [48]: > 100 µM | GI50 [49]: 2.62 µM | TGI [49]: 50 µM | GI50 [50]: 9.21 µM | TGI [50]: > 100 µM | GI50 [51]: 5.17 µM | TGI [51]: > 100 µM | GI50 [52]: 34.7 µM | TGI [52]: > 100 µM | GI50 [53]: 12.2 µM | TGI [53]: 46.4 µM | GI50 [54]: 10.6 µM | TGI [54]: > 100 µM | GI50 [55]: 11.4 µM | TGI [55]: 70.8 µM | GI50 [56]: 5.09 µM | TGI [56]: > 100 µM | GI50 [57]: 2.2 µM | TGI [57]: > 100 µM

From PubChem BioAssay (NCI)
